According to ChEMBL document CHEMBL5108052, “Histone Deacetylase and Enhancer of Zeste Homologue 2 Dual Inhibitors Presenting a Synergistic Effect for the Treatment of Hematological Malignancies” (J Med Chem, 2022):

Assays:
[1] = target: T1, Protein deacetylase HDAC6 (Homo sapiens, UniProt Q9UBN7); assay: Inhibition of HDAC6 (unknown origin) preincubated for 5 mins followed by substrate addition and measured after 30 mins by multimode microplate reader analysis
T1 sequence (Q9UBN7 whole entry): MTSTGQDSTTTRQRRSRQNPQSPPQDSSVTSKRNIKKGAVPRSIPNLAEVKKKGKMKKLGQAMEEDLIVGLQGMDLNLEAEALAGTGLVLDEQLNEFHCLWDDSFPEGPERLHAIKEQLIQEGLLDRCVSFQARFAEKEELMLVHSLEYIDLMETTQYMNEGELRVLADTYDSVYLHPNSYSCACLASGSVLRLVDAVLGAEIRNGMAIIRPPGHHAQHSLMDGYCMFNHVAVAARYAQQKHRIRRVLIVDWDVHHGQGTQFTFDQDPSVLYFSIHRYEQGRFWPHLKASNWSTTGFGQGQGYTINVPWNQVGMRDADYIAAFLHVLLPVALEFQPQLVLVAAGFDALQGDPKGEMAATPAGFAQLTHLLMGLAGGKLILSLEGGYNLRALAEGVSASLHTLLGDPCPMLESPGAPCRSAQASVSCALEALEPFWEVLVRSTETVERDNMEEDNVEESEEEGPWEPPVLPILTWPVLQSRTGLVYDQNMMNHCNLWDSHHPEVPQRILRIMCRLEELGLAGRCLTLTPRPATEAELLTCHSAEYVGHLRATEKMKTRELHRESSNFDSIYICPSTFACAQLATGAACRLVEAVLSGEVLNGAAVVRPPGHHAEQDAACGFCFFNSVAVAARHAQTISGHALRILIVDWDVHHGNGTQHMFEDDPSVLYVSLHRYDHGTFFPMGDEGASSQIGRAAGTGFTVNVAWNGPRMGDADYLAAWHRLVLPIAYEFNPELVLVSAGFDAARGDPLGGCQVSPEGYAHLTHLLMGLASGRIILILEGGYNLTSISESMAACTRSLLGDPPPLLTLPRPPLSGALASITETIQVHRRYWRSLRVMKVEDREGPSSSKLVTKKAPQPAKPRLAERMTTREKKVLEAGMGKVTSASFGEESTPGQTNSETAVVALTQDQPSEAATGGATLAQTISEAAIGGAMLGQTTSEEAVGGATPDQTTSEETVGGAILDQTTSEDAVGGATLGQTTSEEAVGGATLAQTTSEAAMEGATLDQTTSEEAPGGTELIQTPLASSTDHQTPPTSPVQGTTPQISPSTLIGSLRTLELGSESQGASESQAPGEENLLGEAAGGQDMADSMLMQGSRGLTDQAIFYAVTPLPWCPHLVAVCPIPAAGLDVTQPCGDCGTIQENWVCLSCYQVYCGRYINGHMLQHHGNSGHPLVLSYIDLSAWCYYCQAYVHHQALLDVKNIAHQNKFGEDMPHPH

Histone deacetylase 2 = Histone deacetylase 2 (Homo sapiens, UniProt Q92769); assay: Inhibition of full length recombinant human C-terminal GST-fusion-tagged human HDAC2 (1 to 488 residues) expressed in insect cells using RHK-K(Ac)-AMC as substrate incubated for 2 hrs by Multimode microplate reader analysis
Histone deacetylase 2, sequence (Q92769 whole entry, the tested form may be a part): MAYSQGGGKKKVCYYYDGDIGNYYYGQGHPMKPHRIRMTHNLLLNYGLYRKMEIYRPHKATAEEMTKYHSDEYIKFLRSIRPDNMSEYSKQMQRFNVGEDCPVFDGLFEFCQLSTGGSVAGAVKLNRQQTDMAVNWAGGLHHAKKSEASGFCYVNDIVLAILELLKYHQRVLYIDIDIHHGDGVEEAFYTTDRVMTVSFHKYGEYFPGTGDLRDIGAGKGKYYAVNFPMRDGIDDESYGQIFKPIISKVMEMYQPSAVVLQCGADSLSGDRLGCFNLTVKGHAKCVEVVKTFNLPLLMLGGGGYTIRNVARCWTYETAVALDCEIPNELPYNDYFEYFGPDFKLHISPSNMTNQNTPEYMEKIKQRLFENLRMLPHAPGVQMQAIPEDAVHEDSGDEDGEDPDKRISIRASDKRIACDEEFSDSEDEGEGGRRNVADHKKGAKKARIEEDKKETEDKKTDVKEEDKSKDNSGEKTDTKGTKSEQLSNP

Histone deacetylase 4 = Histone deacetylase 4 (Homo sapiens, UniProt P56524); assay: Inhibition of N-terminal GST-tagged/C-terminal His-tagged human HDAC4 (627 to 1084 residues) expressed in baculovirus expression system using trifluoroacetyl lysine as substrate incubated for 2 hrs by Multimode microplate reader analysis
Histone deacetylase 4, sequence (P56524 whole entry, the tested form may be a part): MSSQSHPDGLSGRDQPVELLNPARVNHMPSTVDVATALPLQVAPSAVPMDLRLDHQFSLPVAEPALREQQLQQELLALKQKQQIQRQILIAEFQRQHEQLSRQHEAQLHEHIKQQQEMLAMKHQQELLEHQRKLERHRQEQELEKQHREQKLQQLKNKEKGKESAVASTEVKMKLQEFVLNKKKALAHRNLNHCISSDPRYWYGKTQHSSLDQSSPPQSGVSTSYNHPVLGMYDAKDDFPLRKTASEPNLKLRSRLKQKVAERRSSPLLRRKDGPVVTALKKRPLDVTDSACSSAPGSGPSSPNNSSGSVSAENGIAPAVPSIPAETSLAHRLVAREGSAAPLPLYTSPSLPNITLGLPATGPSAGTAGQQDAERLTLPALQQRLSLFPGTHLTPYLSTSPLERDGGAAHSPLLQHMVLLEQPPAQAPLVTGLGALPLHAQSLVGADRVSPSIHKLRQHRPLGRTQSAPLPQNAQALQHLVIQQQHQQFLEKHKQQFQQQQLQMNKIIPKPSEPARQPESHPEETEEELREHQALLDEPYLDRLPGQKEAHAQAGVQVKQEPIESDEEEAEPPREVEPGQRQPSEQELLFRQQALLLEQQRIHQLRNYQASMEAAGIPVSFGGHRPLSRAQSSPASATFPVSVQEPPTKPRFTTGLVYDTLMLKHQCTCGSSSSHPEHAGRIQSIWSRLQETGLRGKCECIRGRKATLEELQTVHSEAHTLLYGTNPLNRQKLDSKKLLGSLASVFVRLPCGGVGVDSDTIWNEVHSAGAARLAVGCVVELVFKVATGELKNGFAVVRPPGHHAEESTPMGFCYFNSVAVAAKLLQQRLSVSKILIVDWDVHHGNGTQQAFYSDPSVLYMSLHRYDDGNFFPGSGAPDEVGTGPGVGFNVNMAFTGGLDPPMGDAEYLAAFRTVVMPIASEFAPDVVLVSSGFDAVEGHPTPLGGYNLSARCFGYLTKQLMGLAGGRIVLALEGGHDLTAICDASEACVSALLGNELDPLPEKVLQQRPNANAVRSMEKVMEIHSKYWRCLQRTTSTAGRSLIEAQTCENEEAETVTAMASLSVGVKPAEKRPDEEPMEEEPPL

MV4-11 [2] = assay: Induction of apoptosis in human MV4-11 cells assessed as viable cells at 0.2 uM measured after 48 hrs by Annexin V/7-AAD-dual staining based flow cytometric analysis (reference value: 96.4 %); assay type: functional; conditions: read-out: Activity
MV4-11 [3] = assay: Induction of apoptosis in human MV4-11 cells assessed as late apoptotic cells at 0.2 uM measured after 48 hrs by Annexin V/7-AAD-dual staining based flow cytometric analysis (reference value: 1.1 %); assay type: functional
MV4-11 [4] = assay: Induction of apoptosis in human MV4-11 cells assessed as early apoptotic cells at 0.4 uM measured after 48 hrs by Annexin V/7-AAD-dual staining based flow cytometric analysis (reference value: 2.2 %); assay type: functional
MV4-11 [5] = assay: Induction of apoptosis in human MV4-11 cells assessed as late apoptotic cells at 0.4 uM measured after 48 hrs by Annexin V/7-AAD-dual staining based flow cytometric analysis (reference value: 1.1 %); assay type: functional
MV4-11 [6] = assay: Induction of mitochondrial membrane potential in human MV4-11 cells assessed as reduction in red fluorescence intensity at 0.2 uM measured after 48 hrs by JC1 staining-based flow cytometry analysis (reference value: 98.8%); assay type: functional; design: scale not given: the % may be the effect or the level left
MV4-11 [7] = assay: Induction of mitochondrial membrane potential in human MV4-11 cells assessed as reduction in red fluorescence intensity at 0.4 uM measured after 48 hrs by JC1 staining-based flow cytometry analysis (reference value: 98.8%); assay type: functional; design: scale not given: the % may be the effect or the level left
[8] = Metabolic stability in human liver microsomes assessed as half life measured after 5 mins in presence of NADPH and UDPGA by LC-MS/MS analysis; assay type: ADME, Microsome

Cc1cc(C)c(CNC(=O)c2cc(-c3ccc(N4CCN(c5ncc(C(=O)NO)cn5)CC4)nc3)cc3c2cnn3C(C)C)c(=O)[nH]1
IC50 [1]: 700 nM
IC50 (Histone deacetylase 2): 780 nM
IC50 (Histone deacetylase 4): 5640 nM
viability at 0.2 µM (MV4-11 [2]): 74%
Activity (MV4-11 [3]): 11.1%
Activity (MV4-11 [4]): 23.3%
Activity (MV4-11 [5]): 17.1%
Activity (MV4-11 [6]): 84.3%
Activity (MV4-11 [7]): 72%
half-life [8]: 15.3 min
